The results in this text go back to US9914724B2, “C-aryl glycosid derivatives, pharmaceutical composition, preparation process and uses thereof” (SHANGHAI DE NOVO PHARMATECH CO. LTD., priority 2014, dated 2018).

For assay [1], the target named is T1, SGLT-2 (Homo sapiens, UniProt P31639).
T1 sequence (P31639 1-672): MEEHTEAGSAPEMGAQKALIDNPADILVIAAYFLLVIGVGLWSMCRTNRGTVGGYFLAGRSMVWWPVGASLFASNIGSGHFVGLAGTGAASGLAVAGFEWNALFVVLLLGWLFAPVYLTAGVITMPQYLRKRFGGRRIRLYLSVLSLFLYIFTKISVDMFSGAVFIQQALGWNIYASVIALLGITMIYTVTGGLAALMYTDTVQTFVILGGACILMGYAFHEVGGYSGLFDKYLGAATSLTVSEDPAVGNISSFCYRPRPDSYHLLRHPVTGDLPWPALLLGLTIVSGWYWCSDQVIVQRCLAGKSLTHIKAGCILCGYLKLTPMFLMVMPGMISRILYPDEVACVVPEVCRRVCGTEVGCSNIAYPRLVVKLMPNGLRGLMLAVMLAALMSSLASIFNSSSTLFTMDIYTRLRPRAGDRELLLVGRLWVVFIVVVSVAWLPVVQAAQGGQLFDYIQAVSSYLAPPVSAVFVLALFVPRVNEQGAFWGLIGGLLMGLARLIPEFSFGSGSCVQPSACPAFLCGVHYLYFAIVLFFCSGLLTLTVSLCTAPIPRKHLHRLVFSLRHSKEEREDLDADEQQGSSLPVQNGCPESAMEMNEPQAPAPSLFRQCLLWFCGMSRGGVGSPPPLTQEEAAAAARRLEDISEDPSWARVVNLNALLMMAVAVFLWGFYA
Nature of the assay: [14C]-AMG absorption in stable SGLT2 expressing Flp-in CHO cells (SGLT-2 activity screening assay). It is filed as cell-based. Particulars: 14C-AMG uptake, 37° C. 1 h, 1% DMSO. From the text:
(§1) Example 1: [^14C]-AMG Absorption in Stable SGLT1 and SGLT2 Expressing Flp-in CHO Cells (SGLT-1 and SGLT-2 Activity Screening Assay)
(§2) SGLT-1 and SGLT-2 cDNA clones were purchased from OriGene. After sequencing verification, the expression vectors were constructed based on pcDNA5/FRT using conventional molecular biology method. The expression vector was transfected into Flp-in CHO cells using Lipofectamin 2000. The transfected cells were subject hygromycin selection. The single clones of cells were selected by serial dilutions 4-5 weeks after transfection. The expression of SGLT-1 ? SGLT-2 were confirmed by RT-PCR and functional assay and cell line with strong signal was selected for subsequent study.
(§3) Culture of stable SGLT-1 and SGLT-2 expressing Flp-in CHO cell line: the culture media contain F12 medium (Invitrogen), 500 μg/ml hygromycin (Calbiochem) and 10% FBS (Invitrogen). Upon 80% confluency, the cells in the T75 flask were washed three times with PBS (Invitrogen), and 5 mL of Trpsin-EDTA solution (Invitrogen) was then added. The flask was gently rotated so that all the cells were submerged in the digestion solution. After the cells detach, 10 mL of culture medium was added and single cell suspension was prepared by pipetting up and down. The cell concentration was adjusted to 3×10^5/mL, 100 μL/well was added onto clear bottom 96-well plate (Corning).
(§4) The cells were ready for absorption assay once they attached after overnight culture. 12 h after cell plating, the cells were washed once with 150 μL/well absorption solution KRH-NMG (120 mM NMG, 4.7 mM KCl, 1.2 mM MgCl2, 2.2 mM CaCl2, 10 mM HEPES, pH 7.4 1 mM Tris). The solution was then removed from the well. 2.5 μCi/mL ^14C labeled AMG (PerkinElmer) Buffer KRH-Na+ (120 mM NaCl, 4.7 mM KCl, 1.2 mM MgCl2, 2.2 mM CaCl2, 10 mM HEPES, pH 7.4 1 mM Tris) was added at […] after washing with Buffer KRH-Na+ and KRH-NMG. The corresponding compound I was immediately added at 5 μL/well, ensuring the concentration of Dimethyl Sulfoxide was 1% (v/v). The plate was subsequently incubated at 37° C. for 1 h, after which 150 μL of ice cold wash buffer (120 mM NaCl, 4.7 mM KCl, 1.2 mM MgCl2, 2.2 mM CaCl2, 10 mM HEPES, 0.5 mM phlorizin, pH 7.4 1 mM Tris) was immediately added to terminate the reaction. Each well was washed three times with wash buffer and finally the solution was removed. Caution was taken to avoid cell detachment during the procedure. 20 μL/well of Lysis Buffer (0.1 mM NaOH) was added, the plate was vortexed at 900 rpm for 5 min. 80 μL/well of scintillation solution Microsint40 was added, and vortexed at 900 rpm for 5 min. The radioactivity was assayed using MicroBeta Trilux (PerkinElmer). The data was analyzed and IC50 of the compounds was calculated using XL-fit software.

Assay [2] addresses T2, SGLT-1 (Homo sapiens, UniProt P13866).
T2 sequence (P13866 1-664): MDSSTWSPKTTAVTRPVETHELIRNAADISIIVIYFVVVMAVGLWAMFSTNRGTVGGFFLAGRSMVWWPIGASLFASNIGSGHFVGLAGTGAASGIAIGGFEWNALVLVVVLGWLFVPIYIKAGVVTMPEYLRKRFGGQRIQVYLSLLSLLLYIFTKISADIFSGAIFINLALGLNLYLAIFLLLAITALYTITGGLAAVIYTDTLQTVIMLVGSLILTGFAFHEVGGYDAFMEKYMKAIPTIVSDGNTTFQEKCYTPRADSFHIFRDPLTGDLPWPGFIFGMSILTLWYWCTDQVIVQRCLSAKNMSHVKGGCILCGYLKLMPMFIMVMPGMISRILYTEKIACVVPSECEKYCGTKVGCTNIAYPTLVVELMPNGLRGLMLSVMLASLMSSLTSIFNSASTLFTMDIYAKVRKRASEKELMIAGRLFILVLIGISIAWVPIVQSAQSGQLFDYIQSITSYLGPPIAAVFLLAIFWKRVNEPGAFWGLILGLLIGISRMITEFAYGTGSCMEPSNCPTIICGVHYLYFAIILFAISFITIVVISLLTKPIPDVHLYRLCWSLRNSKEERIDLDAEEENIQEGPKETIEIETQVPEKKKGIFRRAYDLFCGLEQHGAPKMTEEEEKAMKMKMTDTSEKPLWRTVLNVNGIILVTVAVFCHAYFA
The assay can be described thus: [14C]-AMG absorption in stable SGLT1 expressing Flp-in CHO cells (SGLT-1 activity screening assay). It is filed as cell-based. Particulars: 14C-AMG uptake, 37° C. 1 h, 1% DMSO.
Excerpt: as §1, §2, §3, §4

As for `OC[C@H]1O[C@@H](c2ccc(Cl)c(Cc3ccc(OC[C@@H]4OCc5ccccc54)cc3)c2)[C@H](O)[C@@H](O)[C@@H]1O` [Compound I-38, (2S,3R,4R,5S,6R)-2-(4-chloro-3-(4-(((R)-1,3-dihydroisobenzofuran-1-yl)methoxy)benzyl)phenyl)-6-(hydroxymethyl)tetrahydro-2H-pyran-3,4,5-triol], the figures for the IC50 in assay [1] and in assay [2] were 1 nM and 608 nM, respectively.

For the compound `OC[C@H]1O[C@@H](c2ccc(Cl)c(Cc3ccc(OCc4cc5cccc(F)c5o4)cc3)c2)[C@H](O)[C@@H](O)[C@@H]1O` [Compound I-10, (2S,3R,4R,5S,6R)-2-(4-chloro-3-(4-((7-fluorobenzofuran-2-yl)methoxy)benzyl)phenyl)-6-(hydroxymethyl)tetrahydro-2H-pyran-3,4,5-triol], the IC50 – broadly, the point on the concentration scale where inhibition reaches its midpoint – amounted to 12 nM in assay [1] and 444 nM in assay [2].

Take `Cc1ccc([C@@H]2O[C@H](CO)[C@@H](O)[C@H](O)[C@H]2O)cc1Cc1ccc(OCC2Cc3ccccc3O2)cc1` (stereo partly drawn) [Compound I-25, (2S,3R,4R,5S,6R)-2-(3-(4-((2,3-dihydrobenzofuran-2-yl)methoxy)benzyl)-4-methylphenyl)-6-(hydroxymethyl)tetrahydro-2H-pyran-3,4,5-triol]: the figures for the IC50 in assay [1] and in assay [2] were 4.1 nM and 180 nM, respectively.

Regarding `OC[C@H]1O[C@@H](c2ccc(Cl)c(Cc3ccc(OCC4Cc5ccc(F)cc5O4)cc3)c2)[C@H](O)[C@@H](O)[C@@H]1O` (stereo partly drawn) [Compound I-33, (2S,3R,4R,5S,6R)-2-(4-chloro-3-(4-((6-fluoro-2,3-dihydrobenzofuran-2-yl)methoxy)benzyl)phenyl)-6-(hydroxymethyl)tetrahydro-2H-pyran-3,4,5-triol], the figures for the half-inhibitory concentration (IC50) in assay [1] and in assay [2] were 6.2 nM and 599 nM, respectively.

For `OC[C@H]1O[C@@H](c2ccc(Cl)c(Cc3ccc(OCc4cc5c(F)cccc5o4)cc3)c2)[C@H](O)[C@@H](O)[C@@H]1O` [Compound I-7, (2S,3R,4R,5S,6R)-2-(4-chloro-3-(4-((4-fluorobenzofuran-2-yl)methoxy)benzyl)phenyl)-6-(hydroxymethyl)tetrahydro-2H-pyran-3,4,5-triol], the IC50 came to 14 nM in assay [1] and 444 nM in assay [2].

Turning to `OC[C@H]1O[C@@H](c2ccc(Cl)c(Cc3ccc(OCC4Cc5ccccc5O4)c(F)c3)c2)[C@H](O)[C@@H](O)[C@@H]1O` (stereo partly drawn) [Compound I-12, (2S,3R,4R,5S,6R)-2-(4-chloro-3-(4-((2,3-dihydrobenzofuran-2-yl)methoxy)-3-fluorobenzyl)phenyl)-6-(hydroxymethyl)tetrahydro-2H-pyran-3,4,5-triol], the IC50 worked out at 11 nM in assay [1] and 1070 nM in assay [2].

`COc1ccc([C@@H]2O[C@H](CO)[C@@H](O)[C@H](O)[C@H]2O)cc1Cc1ccc(OCC2Cc3ccccc3O2)cc1` (stereo partly drawn) [Compound I-29, (2S,3R,4R,5S,6R)-2-(3-(4-((2,3-dihydrobenzofuran-2-yl)methoxy)benzyl)-4-methoxyphenyl)-6-(hydroxymethyl)tetrahydro-2H-pyran-3,4,5-triol]: the IC50 was 59 nM in assay [1] and 220 nM in assay [2].

For `OC[C@H]1O[C@@H](c2ccc(Cl)c(Cc3ccc(OC[C@H]4Cc5ccccc5O4)cc3)c2)[C@H](O)[C@@H](O)[C@@H]1O` [Compound I-24, (2S,3R,4R,5S,6R)-2-(4-chloro-3-(4-(((R)-2,3-dihydrobenzofuran-2-yl)methoxy)benzyl)phenyl)-6-(hydroxymethyl)tetrahydro-2H-pyran-3,4,5-triol], the figures for the IC50 in assay [1] and in assay [2] were 4.3 nM and 1190 nM, respectively.

For `OC[C@H]1O[C@@H](c2ccc(Cl)c(Cc3ccc(OCC4Cc5cccc(F)c5O4)cc3)c2)[C@H](O)[C@@H](O)[C@@H]1O` (stereo partly drawn) [Compound I-34, (2S,3R,4R,5S,6R)-2-(4-chloro-3-(4-((7-fluoro-2,3-dihydrobenzofuran-2-yl)methoxy)benzyl)phenyl)-6-(hydroxymethyl)tetrahydro-2H-pyran-3,4,5-triol], the IC50 in assay [1] amounted to 4.5 nM; in assay [2] it was 141 nM.
